{"source": "patent US20240139167A1", "about": "“LYSOSOME-ASSOCIATED MEMBRANE PROTEIN TARGETING COMPOUNDS AND USES THEREOF” (HADASIT MEDICAL RESEARCH SERVICES AND DEVELOPMENT LTD., priority 2021, published 2024)", "key": {"[1]": {"molecular_target": "T1, LAMP1 (Homo sapiens, UniProt P11279)", "T1 construct": "endogenous in cells", "T1 sequence (P11279 29-417)": "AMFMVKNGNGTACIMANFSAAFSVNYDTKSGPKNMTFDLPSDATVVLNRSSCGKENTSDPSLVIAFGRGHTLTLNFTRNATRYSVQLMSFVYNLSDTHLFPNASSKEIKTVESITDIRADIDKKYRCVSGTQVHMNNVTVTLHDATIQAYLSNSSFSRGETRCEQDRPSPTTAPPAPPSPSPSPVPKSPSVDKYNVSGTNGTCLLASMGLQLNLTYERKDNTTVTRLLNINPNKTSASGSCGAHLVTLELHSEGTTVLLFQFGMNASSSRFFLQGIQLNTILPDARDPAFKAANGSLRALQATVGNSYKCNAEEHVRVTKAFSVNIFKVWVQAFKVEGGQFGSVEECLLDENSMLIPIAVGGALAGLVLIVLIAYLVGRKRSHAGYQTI", "assay": "Cellular thermal shift assay (CETSA)", "format": "binding", "excerpt": "FIGS. 5A-5E include images of experiments showing hetero-assembly forms around Compound 1 and not around endogenous molecules as shown by the liquid crystals formed in experiments 1-3 (5A); image of STRING network of targets at the interactome of Compound 1 (5B); cellular thermal shift assay (CETSA) of different targets of the Compound 1 hetero-assembly (5C); surface plasmon resonance sensograms of binding of Compound 1 to LAMP1 (5D); sensogram experiments consisting of association and dissociation at the indicated concentration ranges and pH values were then conducted.\nThe inventors have investigated the mechanism of action of 144DG11. To that end, the inventors first decided to determine its molecular target. Nematic protein organization technique (NPOT, Inoviem, Ltd.) was applied to homogenates of APBD patient fibroblasts. The NPOT analysis has discovered protein hetero assemblies uniquely generated around 144DG11 only when it was added to the cell homogenates (FIG. 5A). The next step in this analysis has identified the interactome of protein targets interacting with 144DG11 in APBD patients' fibroblasts. […] In the search for a putative binding site for Compound 1 in LAMP1, the inventors have analyzed the N- and C-terminal subdomains of its luminal domain (residues A29-R195 and S217-D378, respectively), which have a similar topology. […]"}, "[2]": {"system": "Gbe^ys/ys mice", "assay": "Transmission electron microscopy of liver sections, lysosomal glycogen", "format": "in vivo", "settings": "9.5 month old mice", "excerpt": "FIGS. 6A-6E include bar graphs of autophagic flux, determined by the extent of lysosomal inhibitors-dependent increase in the ratio of lipidated to non-lipidated LC3 (LC3II/LC3I) (6A); representative TEM images of liver tissue from 9.5 month old Gbe^ys/ys mice treated with Compound 11, or 5% DMSO vehicle (6B), G: Glycogen (alpha particles) and polyglucosan (structures with variable electron densities), L: Lysosomes, M: Mitochondria; right panel: lysosomal glycogen stain was quantified by ImageJ “count particle” tool; micrograph of LAMP1 knocked down and control APBD primary skin fibroblasts treated or not with Compound 1 and lysosomal inhibitors (LI) and quantification of 3 experiments and results of Student's t-tests. *, p<0.1; **, p<0.05; ***, p<0.01 (6C); graphs of lysosomal pH changes determined in APBD primary fibroblasts transduced with lentiviruses encoding for GFP or GFP-shLAMP1 and treated or not with Compound 1 for 24 h and confocal microscope images of cells treated with Lysosensor and stained for PAS (6D); and bar graph of ATP production rate assay in LAMP1-KD and GFP (Control) cells treated for 24 h (chronic) or on assay (acute) with Compound 1 (6E).\nLiver tissue was minced and fixed in a solution containing 2% paraformaldehyde, 2.5% glutaraldehyde (EM grade) in 0.1 M sodium cacodylate buffer pH 7.3 for 2 hours at RT, followed by 24 h at 4 ° C. […]"}, "[3]": {"system": "microglia cells from brains of 5XFAD mice", "assay": "LC3, p62 and PAS staining of microglia from AD model", "format": "cell-based", "settings": "50 μM, 24 h", "method": "FIGS. 19A-19B include fluorescent micrographs showing microglia cells which were isolated from the brains of AD modeling 5XFAD mice by CD11b magnetic beads. Microglia were then incubated for 24 h with (treated), or without (untreated) 50 μM 144DG11, fixed and stained for the autophagic substrates LC3 (19A) and p62 (19B) and for glycogen by PAS, all as indicated. Reduction in the levels of both LC3 and p62 indicate induction of autophagy which degrades these substrates.\nBeing the most pro-inflammatory tissue in the brain, microglia are currently at the epicenter of innovative therapeutic research for AD. Moreover, as neuroinflammation is now accepted as the main pathogenic factor in AD and as activation of microglia autophagy and mitophagy is a leading therapeutic strategy (see, for instance, Eshraghi et al., (2021)), 144DG11 holds promise as a potential AD therapeutic."}}, "data": [{"smiles": "COCCN(Cc1sccc1C)C(=O)c1cc(C)nc(O)c1", "note": "[Compound 1]", "values": [{"measurement": "increase in LAMP1 levels", "setting": "[1]", "value": 1.2, "unit": "fold"}, {"measurement": "interaction with LAMP1 (not other protein targets; 6 of 8 NPOT targets tested)", "setting": "[1]", "value": "directly interacts"}, {"measurement": "lysosomal glycogen in liver sections", "setting": "[2]", "value": "decrease in lysosomal glycogen"}, {"measurement": "glycogen levels", "setting": "[3]", "value": "did not lower glycogen levels"}, {"measurement": "total LC3 and p62", "setting": "[3]", "value": "decrease"}]}]}
